Assay results from PubChem BioAssay AID248 (DTP/NCI, 2004).
“And” between values parts separate entries of the source, which are not always exact repeats. Equal values may be shown once. Toxic doses and inconclusive results are not listed. No stated cut-off is given here; in the data, active means T/C of 150% or more; inactive means T/C below 125%.

System: L1210 leukemia ip in BDF1 mice, survival T/C
Assay: NCI In Vivo Anticancer Drug Screen. Data for tumor model L1210 Leukemia (intraperitoneal) in B6D2F1 (BDF1) mice
Settings: endpoint: mean survival time, higher = longer survival
How it was run: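 Read-out is survival time, reported as the treated-group measurement over the vehicle-control measurement.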

[1] = dose: 100.0 mg/kg/injection, schedule: Q04DX003 (ip), vehicle: saline with Tween-80
[2] = dose: 200.0 mg/kg/injection, schedule: Q04DX003 (ip), vehicle: saline with Tween-80
[3] = dose: 100.0 mg/kg/injection, schedule: Q01DX001 (ip), vehicle: carboxymethylcellulose (CMC)
[4] = dose: 200.0 mg/kg/injection, schedule: Q01DX001 (ip), vehicle: carboxymethylcellulose (CMC)
[5] = dose: 400.0 mg/kg/injection, schedule: Q01DX001 (ip), vehicle: carboxymethylcellulose (CMC)
[6] = dose: 100.0 mg/kg/injection, schedule: Q01DX001 (ip), vehicle: saline
[7] = dose: 50.0 mg/kg/injection, schedule: Q01DX009 (ip), vehicle: Klucel (hydroxypropylcellulose) (HPC)
[8] = dose: 100.0 mg/kg/injection, schedule: Q01DX009 (ip), vehicle: Klucel (hydroxypropylcellulose) (HPC)
[9] = dose: 200.0 mg/kg/injection, schedule: Q01DX009 (ip), vehicle: Klucel (hydroxypropylcellulose) (HPC)
[10] = dose: 100.0 mg/kg/injection, schedule: Q04DX003 (ip), vehicle: Klucel (hydroxypropylcellulose) (HPC)
[11] = dose: 200.0 mg/kg/injection, schedule: Q04DX003 (ip), vehicle: Klucel (hydroxypropylcellulose) (HPC)
[12] = dose: 100.0 mg/kg/injection, schedule: Q01DX009 (ip), vehicle: saline with Tween-80
[13] = dose: 200.0 mg/kg/injection, schedule: Q01DX009 (ip), vehicle: saline with Tween-80
[14] = dose: 50.0 mg/kg/injection, schedule: Q01DX009 (ip), vehicle: saline with Tween-80
[15] = dose: 100.0 mg/kg/injection, schedule: Q04DX002 (ip), vehicle: Klucel (hydroxypropylcellulose) (HPC)
[16] = dose: 200.0 mg/kg/injection, schedule: Q04DX002 (ip), vehicle: Klucel (hydroxypropylcellulose) (HPC)

Measured: T/C

CCN(C(=O)Nc1ccc(Cl)cc1)c1ccccc1C
inactive: [1] 91 % of control | [2] 93 % of control

CC(O)CN(c1ccccc1)c1ccccc1 (configuration not stated)
inactive: [3] 101 % of control | [4] 92 % of control | [5] 95 % of control

CC(C)(CO)CN1CCCC1
inactive: [6] 103 % of control | dose: 200.0 mg/kg/injection, schedule: Q01DX001 (ip), vehicle: saline 100 % of control

O=C1c2ccccc2C(=O)N1c1cccc([N+](=O)[O-])c1
inactive: [7] 114 % of control | [8] 90 % of control | [9] 114 % of control

NCCNc1ncnc2c1ncn2C1OC(CO)C(O)C1O (configuration not stated)
inactive: dose: 6.25 mg/kg/injection, schedule: Q01DX009 (ip), vehicle: saline 115 % of control | dose: 12.5 mg/kg/injection, schedule: Q01DX005 (ip), vehicle: saline 101 % of control | dose: 12.5 mg/kg/injection, schedule: Q01DX009 (ip), vehicle: saline 111 % of control | dose: 25.0 mg/kg/injection, schedule: Q01DX005 (ip), vehicle: saline 100 % of control | dose: 25.0 mg/kg/injection, schedule: Q01DX009 (ip), vehicle: saline 117 % of control | dose: 50.0 mg/kg/injection, schedule: Q01DX005 (ip), vehicle: saline 97 % of control | dose: 100.0 mg/kg/injection, schedule: Q01DX005 (ip), vehicle: saline 86 % of control

NC(=O)c1cccc([N+](=O)[O-])c1Br
inactive: [10] 103 % of control | [11] 98 % of control

O=N[O-].O=N[O-].[Co].[NH-]CC[N-]CC[N-]CC[NH-]
inactive: dose: 50.0 mg/kg/injection, schedule: Q01DX001 (ip), vehicle: saline 104 % of control

COc1ccc(CNCCNCc2ccc(OC)cc2)cc1
inactive: [7] 96 % of control | [8] 100 % of control | dose: 100.0 mg/kg/injection, schedule: Q01DX009 (ip), vehicle: water 98 % of control | [10] 103 % of control | dose: 100.0 mg/kg/injection, schedule: Q04DX003 (ip), vehicle: water 96 % of control | [9] 96 % of control | dose: 200.0 mg/kg/injection, schedule: Q01DX009 (ip), vehicle: water 92 % of control | [11] 94 % of control | dose: 200.0 mg/kg/injection, schedule: Q04DX003 (ip), vehicle: water 100 % of control | dose: 400.0 mg/kg/injection, schedule: Q01DX009 (ip), vehicle: water 89 % of control | dose: 400.0 mg/kg/injection, schedule: Q04DX003 (ip), vehicle: water 100 % of control

CC[n+]1cccc2ccccc21
inactive: [6] 97 % of control

O=C(O)c1ccc(C(=O)O)nn1
inactive: dose: 100.0 mg/kg/injection, schedule: Q04DX002 (ip), vehicle: saline 96 % of control | dose: 200.0 mg/kg/injection, schedule: Q04DX002 (ip), vehicle: saline 90 % of control

CCOC(=O)CNC(=O)NCc1ccccc1
inactive: [12] 106 % of control | [13] 102 % of control | dose: 400.0 mg/kg/injection, schedule: Q01DX009 (ip), vehicle: saline with Tween-80 105 % of control

NC(=O)C1C2C=CC(O2)C1C(=O)O (configuration not stated)
inactive: dose: 12.5 mg/kg/injection, schedule: Q04DX002 (ip), vehicle: saline 111 % of control | dose: 25.0 mg/kg/injection, schedule: Q04DX002 (ip), vehicle: saline 97 % of control | dose: 50.0 mg/kg/injection, schedule: Q04DX002 (ip), vehicle: saline 103 % of control

O=S(=O)(C1=C(c2ccccc2)CCCC1)c1ccccc1
inactive: dose: 100.0 mg/kg/injection, schedule: Q01DX009 (ip), vehicle: acetone 104 % of control

CC(C)(CO)NC(=O)COc1ccc(Cl)cc1Cl
inactive: dose: 100.0 mg/kg/injection, schedule: Q04DX002 (ip), vehicle: saline with Tween-80 102 % of control | dose: 200.0 mg/kg/injection, schedule: Q04DX002 (ip), vehicle: saline with Tween-80 94 % of control | dose: 400.0 mg/kg/injection, schedule: Q04DX002 (ip), vehicle: saline with Tween-80 94 % of control

CCCCCCCC(=O)Nc1ccc(C)cc1
inactive: [7] 97 % of control | [8] 95 % of control | [10] 99 % of control | [9] 98 % of control | [11] 98 % of control

Cc1ccc(C(=O)NCCCOc2ccc(N)cc2Cl)cc1S(=O)(=O)F
inactive: [14] 104 % of control | [12] 95 % of control | [1] 103 % of control | [13] 90 % of control | [2] 94 % of control | dose: 400.0 mg/kg/injection, schedule: Q04DX003 (ip), vehicle: saline with Tween-80 105 % of control

CCCCC(=O)N/N=C\c1c(O)cc(OC)cc1OC
inactive: [3] 87 % of control | [4] 87 % of control | [5] 93 % of control

O=C(O)CC1CCCNC1 (configuration not stated)
inactive: dose: 75.0 mg/kg/injection, schedule: Q04DX003 (ip), vehicle: saline 100 % of control | dose: 150.0 mg/kg/injection, schedule: Q04DX003 (ip), vehicle: saline 103 % of control | dose: 300.0 mg/kg/injection, schedule: Q04DX003 (ip), vehicle: saline 101 % of control

CCOC(=O)C=C1CCN(C)CC1
inactive: [14] 104 % of control | dose: 75.0 mg/kg/injection, schedule: Q01DX001 (ip), vehicle: saline 97 % of control | [12] 98 % of control | dose: 150.0 mg/kg/injection, schedule: Q01DX001 (ip), vehicle: saline 103 % of control | [13] 97 % of control | dose: 300.0 mg/kg/injection, schedule: Q01DX001 (ip), vehicle: saline 101 % of control

O=S(=O)(Cl)c1ccc2cc3ccccc3cc2c1
inactive: [14] 98 % of control | [12] 96 % of control | [13] 102 % of control

O=S(=O)(O)c1cc(I)c(O)c2ncccc12
inactive: [15] 102 % of control | [16] 95 % of control | dose: 400.0 mg/kg/injection, schedule: Q04DX002 (ip), vehicle: Klucel (hydroxypropylcellulose) (HPC) 95 % of control

Cc1ccc(NCC(=O)NN)cc1
inactive: [15] 104 % of control | [16] 107 % of control

COc1cc2c(cc1OC)C1=C(CC2)C2CCCN2CC1 (configuration not stated)
inactive: dose: 6.25 mg/kg/injection, schedule: Q04DX003 (ip), vehicle: saline 100 % of control | dose: 12.5 mg/kg/injection, schedule: Q04DX003 (ip), vehicle: saline 97 % of control | dose: 25.0 mg/kg/injection, schedule: Q04DX003 (ip), vehicle: saline 94 % of control and 105 % of control | dose: 50.0 mg/kg/injection, schedule: Q04DX003 (ip), vehicle: saline 102 % of control

CC1=NN(c2ccc([N+](=O)[O-])cc2)C(=O)C1[N+](=O)[O-] (configuration not stated) (tested in a mixture with another compound)
inactive: dose: 75.0 mg/kg/injection, schedule: Q01DX001 (ip), vehicle: carboxymethylcellulose (CMC) 101 % of control | dose: 150.0 mg/kg/injection, schedule: Q01DX001 (ip), vehicle: carboxymethylcellulose (CMC) 95 % of control | dose: 300.0 mg/kg/injection, schedule: Q01DX001 (ip), vehicle: carboxymethylcellulose (CMC) 110 % of control
